Test results from patent publication US8030300B2, “Ligands for nicotinic acetylcholine receptors, and methods of making and using them” (priority 2003, dated 2011).
Read-outs that look alike come from different tables or passages of the source.

Legend:
Experiment in all cases: biochemical
Format in all cases: binding
α4β2 nAChR subtype = molecular target: T1, α4β2 nAChR subtype (Rattus norvegicus, UniProt P09483+P12390)
T1 construct: expressed in transfected cells
Source text: (§1) In order to assess the steric and hydropathic effects of the C-5 substituents of the pyridine on the binding affinity and subtype-selectivity at neuronal nicotinic acetylcholine receptors. […] The binding affinity ratios for a ligand, calculated from its affinities at an α subunit paired with either the β2 osubunit or the β4 subunit, represents a measure of the selectivity of that ligand with regard to the β subunits.

α3β2 nAChR subtype = molecular target: T2, α3β2 nAChR subtype (Rattus norvegicus, UniProt P04757+P12390)
T2 construct: expressed in transfected cells
Source text: as §1

α4β4 nAChR subtype = molecular target: T3, α4β4 nAChR subtype (Rattus norvegicus, UniProt P09483+P12392)
T3 construct: expressed in transfected cells
Source text: as §1

α2β4 nAChR subtype = molecular target: T4, α2β4 nAChR subtype (Rattus norvegicus, UniProt P12389+P12392)
T4 construct: expressed in transfected cells
Source text: as §1

α2β2 nAChR subtype = molecular target: T5, α2β2 nAChR subtype (Rattus norvegicus, UniProt P12389+P12390)
T5 construct: expressed in transfected cells
Source text: as §1

α3β4 nAChR subtype = molecular target: T6, α3β4 nAChR subtype (Rattus norvegicus, UniProt P04757+P12392)
T6 construct: expressed in transfected cells
Source text: as §1

[1] = molecular target: T7, receptors in rat forebrain (mainly α4β2) (Rattus norvegicus, UniProt P09483+P12390)
T7 construct: from tissue; host or cells: rat forebrain homogenate
Source text: as §1
In Vitro Inhibition of ^3H-Epibatidin Binding
The high affinity binding site for ^3H-epibatidin is most certainly binding to the α4β2 subtype of nicotinic receptors. The identity of the low affinity site is still believed to be unknown.
Tissue preparation: Preparations may be performed at 0-4° C. unless otherwise indicated. […] The tissue suspension may then be centrifuged at 27,000×g for 10 min. The supernatant is then discarded and the pellet may then be washed three times by centrifugation at 27,000×g for 10 min in 20 mL fresh buffer, and the final pellet may be resuspended in fresh buffer (400 mL per g of original tissue) and used for binding assays.
Assay: Aliquots of 2.0 mL homogenate may be added to 0.100 mL of test solution and 0.100 mL of ^3H-epibatidin (0.3 nM, final concentration), mixed and incubated for 60 min at room temperature. […] The amount of radioactivity on the filters may be determined by conventional liquid scintillation counting. Specific binding is total binding minus non-specific binding.

[2] = Ki α4β2, Table 5, rat nAChR subtypes
[3] = Ki α3β2, Table 5, rat nAChR subtypes
[4] = Ki α4β4, Table 5, rat nAChR subtypes
[5] = Ki α2β4, Table 5, rat nAChR subtypes
[6] = Ki α2β2, Table 5, rat nAChR subtypes
[7] = Ki α3β4, Table 5, rat nAChR subtypes
[8] = Ki α4β2*, Table 5, *Rat forebrain, mainly α4β2
[9] = Table 3, mean ± SEM of 3 (nicotine, 1: 3 to 6) independent measurements, read-out: Ki α4β2
[10] = Table 3, mean ± SEM of 3 (nicotine, 1: 3 to 6) independent measurements, read-out: Ki α3β2
[11] = Table 3, mean ± SEM of 3 (nicotine, 1: 3 to 6) independent measurements, read-out: Ki α4β4
[12] = Table 3, mean ± SEM of 3 (nicotine, 1: 3 to 6) independent measurements, read-out: Ki α2β4
[13] = Table 3, mean ± SEM of 3 (nicotine, 1: 3 to 6) independent measurements, read-out: Ki α3β4
[14] = Ki α4β2, Table 1, mean of 3 (1, 2: 3 to 6) independent measurements
[15] = Ki α3β2, Table 1, mean of 3 (1, 2: 3 to 6) independent measurements
[16] = Ki α4β4, Table 1, mean of 3 (1, 2: 3 to 6) independent measurements
[17] = Ki α2β4, Table 1, mean of 3 (1, 2: 3 to 6) independent measurements
[18] = Ki α2β2, Table 1, mean of 3 (1, 2: 3 to 6) independent measurements
[19] = Ki α3β4, Table 1, mean of 3 (1, 2: 3 to 6) independent measurements
[20] = Ki Rat forebrain, Table 1, mean of 3 (1, 2: 3 to 6) independent measurements

T3 sequence (P12392 21-495): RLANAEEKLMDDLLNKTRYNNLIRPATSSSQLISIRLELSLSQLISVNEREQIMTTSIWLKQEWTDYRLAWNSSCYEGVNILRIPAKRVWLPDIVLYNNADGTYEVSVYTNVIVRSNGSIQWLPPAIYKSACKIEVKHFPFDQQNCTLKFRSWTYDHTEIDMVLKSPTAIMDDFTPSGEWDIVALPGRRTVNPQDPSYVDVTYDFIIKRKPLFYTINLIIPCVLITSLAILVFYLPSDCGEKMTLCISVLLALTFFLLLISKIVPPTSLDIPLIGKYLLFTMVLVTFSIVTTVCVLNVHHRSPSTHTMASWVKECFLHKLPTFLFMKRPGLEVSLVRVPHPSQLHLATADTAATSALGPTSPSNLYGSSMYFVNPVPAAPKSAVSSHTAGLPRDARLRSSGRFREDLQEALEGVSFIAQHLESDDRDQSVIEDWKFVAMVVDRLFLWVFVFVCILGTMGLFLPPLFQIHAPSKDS
T3 sequence (P09483 31-630): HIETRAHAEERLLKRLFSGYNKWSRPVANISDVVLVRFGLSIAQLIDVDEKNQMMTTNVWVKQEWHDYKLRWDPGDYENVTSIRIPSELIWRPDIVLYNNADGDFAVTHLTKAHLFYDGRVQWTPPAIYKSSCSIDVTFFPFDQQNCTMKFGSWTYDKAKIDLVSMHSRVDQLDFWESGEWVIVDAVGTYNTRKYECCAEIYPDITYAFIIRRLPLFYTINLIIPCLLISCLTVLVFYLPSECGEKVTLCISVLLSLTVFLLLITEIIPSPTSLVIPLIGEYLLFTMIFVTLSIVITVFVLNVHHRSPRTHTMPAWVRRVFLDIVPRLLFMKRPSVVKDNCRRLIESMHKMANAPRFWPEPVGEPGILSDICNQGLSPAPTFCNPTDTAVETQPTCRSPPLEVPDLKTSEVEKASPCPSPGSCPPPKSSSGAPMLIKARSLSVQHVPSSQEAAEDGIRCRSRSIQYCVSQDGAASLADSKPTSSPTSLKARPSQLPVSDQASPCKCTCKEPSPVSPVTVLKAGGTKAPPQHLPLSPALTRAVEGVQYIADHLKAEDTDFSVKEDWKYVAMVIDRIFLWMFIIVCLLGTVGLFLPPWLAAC
T6 sequence (P04757 26-499): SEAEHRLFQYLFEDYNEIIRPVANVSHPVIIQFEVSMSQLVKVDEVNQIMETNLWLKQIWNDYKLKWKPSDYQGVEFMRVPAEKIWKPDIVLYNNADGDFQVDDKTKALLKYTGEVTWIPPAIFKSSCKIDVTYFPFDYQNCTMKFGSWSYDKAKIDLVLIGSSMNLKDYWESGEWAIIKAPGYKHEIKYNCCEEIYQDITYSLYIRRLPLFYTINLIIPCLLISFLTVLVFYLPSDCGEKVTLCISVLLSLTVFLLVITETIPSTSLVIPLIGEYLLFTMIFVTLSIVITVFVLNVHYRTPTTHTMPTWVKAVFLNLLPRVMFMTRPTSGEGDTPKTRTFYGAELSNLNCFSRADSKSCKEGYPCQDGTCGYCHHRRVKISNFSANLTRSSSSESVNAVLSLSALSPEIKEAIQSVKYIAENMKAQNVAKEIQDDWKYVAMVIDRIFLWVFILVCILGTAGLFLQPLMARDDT
T6 sequence (P12392 21-495): as the sequence (P12392 21-495) above
T5 sequence (P12390 25-500): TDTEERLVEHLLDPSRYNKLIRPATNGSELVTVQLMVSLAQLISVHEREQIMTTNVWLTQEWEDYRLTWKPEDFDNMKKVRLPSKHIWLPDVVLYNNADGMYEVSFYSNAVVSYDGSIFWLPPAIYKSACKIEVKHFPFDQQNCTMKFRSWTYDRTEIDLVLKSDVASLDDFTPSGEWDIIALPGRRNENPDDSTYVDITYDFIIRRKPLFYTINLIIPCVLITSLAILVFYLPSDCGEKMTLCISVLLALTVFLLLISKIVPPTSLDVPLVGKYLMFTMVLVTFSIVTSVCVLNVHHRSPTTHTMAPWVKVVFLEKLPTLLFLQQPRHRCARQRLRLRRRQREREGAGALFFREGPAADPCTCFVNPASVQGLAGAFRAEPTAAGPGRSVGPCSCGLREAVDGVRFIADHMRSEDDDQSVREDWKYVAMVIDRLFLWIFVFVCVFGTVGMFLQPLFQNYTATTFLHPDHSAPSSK
T5 sequence (P12389 28-511): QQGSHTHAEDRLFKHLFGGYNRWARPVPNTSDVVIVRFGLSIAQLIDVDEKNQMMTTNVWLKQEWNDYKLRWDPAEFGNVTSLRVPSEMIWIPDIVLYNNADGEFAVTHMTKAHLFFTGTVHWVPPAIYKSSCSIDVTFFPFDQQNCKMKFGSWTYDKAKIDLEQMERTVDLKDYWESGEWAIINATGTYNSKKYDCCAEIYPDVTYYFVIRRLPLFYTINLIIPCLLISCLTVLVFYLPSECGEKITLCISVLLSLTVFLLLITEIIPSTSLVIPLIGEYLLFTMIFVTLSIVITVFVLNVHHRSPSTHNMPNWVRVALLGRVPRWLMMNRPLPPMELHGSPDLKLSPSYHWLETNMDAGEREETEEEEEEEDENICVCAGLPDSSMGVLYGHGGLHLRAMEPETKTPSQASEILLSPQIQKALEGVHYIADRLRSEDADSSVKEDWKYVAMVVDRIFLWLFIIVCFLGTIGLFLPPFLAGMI
T1 sequence (P12390 25-500): as the sequence (P12390 25-500) above
T1 sequence (P09483 31-630): as the sequence (P09483 31-630) above
T2 sequence (P12390 25-500): as the sequence (P12390 25-500) above
T2 sequence (P04757 26-499): as the sequence (P04757 26-499) above
T7 sequence (P09483 31-630): as the sequence (P09483 31-630) above
T7 sequence (P12390 25-500): as the sequence (P12390 25-500) above
T4 sequence (P12389 28-511): as the sequence (P12389 28-511) above
T4 sequence (P12392 21-495): as the sequence (P12392 21-495) above

Structure (SMILES) | Ki (α4β2 nAChR subtype) [µM] | Ki (α3β2 nAChR subtype) [µM] | Ki (α4β4 nAChR subtype) [µM] | Ki (α2β4 nAChR subtype) [µM] | Ki (α2β2 nAChR subtype) [µM] | Ki (α3β4 nAChR subtype) [µM] | Ki [1] [µM] | Ki (α4β2 nAChR subtype; [2]) [µM] | Ki (α3β2 nAChR subtype; [3]) [µM] | Ki (α4β4 nAChR subtype; [4]) [µM] | Ki (α2β4 nAChR subtype; [5]) [µM] | Ki (α2β2 nAChR subtype; [6]) [µM] | Ki (α3β4 nAChR subtype; [7]) [µM] | Ki [1, 8] [µM] | further results
O=c1cccc2n1C[C@H]1C[C@@H]2CN(CCCOc2cccnc2)C1 [ZW-17] | 3.11 | > 1 | 3.23 | 14 | 2.98 | > 10 | 4.55 | – | – | – | – | – | – | – | –
CN1CCC[C@H]1COc1cncc(C#CCNC(=O)OC(C)(C)C)c1 [Ligand 13] | 0.00207 | 0.00727 | 8.28 | 8.24 | 0.00119 | 59.9 | 0.00371 | – | – | – | – | – | – | – | –
OCCCCC#Cc1cncc(OC[C@@H]2CCCN2)c1 [Ligand 27, 5-(6-Hydroxy-1-hexynyl)-3-(2(S)-pyrrolidinylmethoxy)pyridine] | – | – | – | – | – | – | – | 0.000665 | 0.00269 | 0.778 | 0.835 | 0.00151 | 16.1 | 0.00115 | –
Clc1ccc2c(n1)CCC21CC2CCC1N2 (stereo not drawn) [Ligand 58b] | – | – | – | – | – | – | – | 5.05 | 3.66 | – | 7.09 | 2.46 | 14.9 | 12.1 | Ki (α4β2 nAChR subtype; [9]): 6.99 µM; Ki (α3β2 nAChR subtype; [10]): 4.07 µM; Ki (α4β4 nAChR subtype; [11]): 9.46 µM; Ki (α4β4 nAChR subtype; Table 5, rat nAChR subtypes, read-out: Ki α4β4): 9.56 µM; Ki (α2β4 nAChR subtype; [12]): 7.18 µM; Ki (α3β4 nAChR subtype; [13]): 13.8 µM
CN1CCC[C@H]1COc1cncc(C#CC(C)(C)O)c1 [Ligand 15] | 0.00134 | 0.0197 | 5.06 | 5.89 | 0.00193 | 32.6 | 0.00839 | – | – | – | – | – | – | – | –
CC(N)C#Cc1cncc(OC[C@@H]2CCCN2C)c1 (stereo partly drawn) [ZW-99] | 0.00718 | 0.0474 | 6.13 | 7.4 | 0.00752 | 127 | 0.0414 | – | – | – | – | – | – | – | –
OC1CC2CC(c3ccc(Cl)nc3)C1N2 (stereo not drawn) [Ligand 8, 2-exo-(2-Chloro-5-pyridyl)-6-exo-hydroxyl-7-azabicyclo[2.2.1]heptane] | – | – | – | – | – | – | – | 0.0126 | 0.00888 | 0.0456 | 0.0397 | 0.0063 | 0.144 | 0.0229 | –
OC1CC2NC1CC2c1ccc(Cl)nc1 (stereo not drawn) [Ligand 7, 2-exo-(2-Chloro-5-pyridyl)-5-endo-hydroxyl-7-azabicyclo[2.2.1]heptane] | – | – | – | – | – | – | – | 0.0709 | 0.285 | 0.247 | 0.238 | 0.0937 | 0.916 | 0.134 | –
Clc1cc2c(cn1)C1C3CCC(N3)C1CC2 (stereo not drawn) [Ligand 37a] | – | – | – | – | – | – | – | 0.0674 | 0.345 | 0.672 | 0.693 | 0.294 | 2.17 | 0.339 | Ki (α4β2 nAChR subtype; [9]): 0.073 µM; Ki (α3β2 nAChR subtype; [10]): 0.354 µM; Ki (α4β4 nAChR subtype; [11]): 0.637 µM; Ki (α2β4 nAChR subtype; [12]): 0.717 µM; Ki (α2β2 nAChR subtype; Table 3, mean ± SEM of 3 (nicotine, 1: 3 to 6) independent measurements, read-out: Ki α2β2): 0.29 µM; Ki (α3β4 nAChR subtype; [13]): 2.28 µM
CN1CCC[C@H]1COc1cncc(C#CCCCCCCCCO)c1 [Ligand 17] | – | – | – | – | – | – | – | – | – | – | – | – | – | – | Ki (α4β2 nAChR subtype; [14]): 0.0065 µM; Ki (α3β2 nAChR subtype; [15]): 0.0521 µM; Ki (α4β4 nAChR subtype; [16]): 3.56 µM; Ki (α2β4 nAChR subtype; [17]): 7.8 µM; Ki (α2β2 nAChR subtype; [18]): 0.0268 µM; Ki (α3β4 nAChR subtype; [19]): 62.7 µM; Ki [1, 20]: 0.0217 µM
O=c1cccc2n1C[C@@H]1CNC[C@H]2C1 [Cytisine, reference compound] | 0.00135 | 0.00806 | 0.00152 | 0.00351 | 0.000571 | – | 0.00257 | – | – | – | – | – | – | – | Ki (α3β4 nAChR subtype; Table 5, rat nAChR subtypes, read-out: Ki α3β4): 0.21 µM
CCCCCC#Cc1ccc(C2CC3CCC2N3)cn1 (stereo not drawn) [Ligand 34] | – | – | – | – | – | – | – | 0.0677 | 0.0198 | 0.0618 | 0.0674 | 0.0169 | 0.0954 | 0.052 | –
C#Cc1cncc(OC[C@@H]2CCCN2C)c1 [Ligand 18] | – | – | – | – | – | – | – | – | – | – | – | – | – | – | Ki (α4β2 nAChR subtype; [14]): 0.00102 µM; Ki (α3β2 nAChR subtype; [15]): 0.0107 µM; Ki (α4β4 nAChR subtype; [16]): 0.473 µM; Ki (α2β4 nAChR subtype; [17]): 0.434 µM; Ki (α2β2 nAChR subtype; [18]): 0.00075 µM; Ki (α3β4 nAChR subtype; [19]): 3.08 µM; Ki [1, 20]: 0.00365 µM
